Laboratory results taken from US20080318905A1, “Prodrugs and methods of making and using the same” (priority 2006, published 2008).

What was measured:
human mu receptor = human mu receptor (Homo sapiens, UniProt P35372); assay: Human mu receptor binding (IC50, Ki)
[1] = Solubility in PBS at pH 8; settings: for Solubility in PBS at pH 8: PBS pH 8, 37° C., levorphanol free base by sonication; for solubility: PBS, 37 °C, pH 8, aqueous buffer, thermodynamic from solid
Procedure: (§1) PBS solutions at various pHs (1.2, 6 and 8) were prepared by adjusting 60-mL volumes of PBS maintained at 37° C. with a dropwise addition of concentrated phosphoric acid and/or 0.01 N NaOH, and monitoring with a pH meter calibrated between pH 4 and 7. […] A 50 μL sample was taken for the t=0 time point. The remaining solution was then divided into five aliquots (175 μL each) in microcentrifuge vials labeled according to sampling time-points. Air-tight sealed vials were then incubated at 37° C. in a temperature-controlled water bath. At each time-point, the appropriate vial was removed from the water bath, and a 50 μL sample drawn for HPLC analysis.

[2] = Chemical hydrolysis / aqueous stability in PBS at pH 1.2, 6 and 8, 37° C., HPLC; settings: 1 mg/mL
Procedure: as §1

[3] = target: alkaline phosphatase (EC 3.1.3.1) (Bos taurus, UniProt P19111); assay: Enzymatic hydrolysis by alkaline phosphatase at pH 8, 37° C., HPLC
Sequence of alkaline phosphatase (EC 3.1.3.1) (P19111 20-506 limits assumed): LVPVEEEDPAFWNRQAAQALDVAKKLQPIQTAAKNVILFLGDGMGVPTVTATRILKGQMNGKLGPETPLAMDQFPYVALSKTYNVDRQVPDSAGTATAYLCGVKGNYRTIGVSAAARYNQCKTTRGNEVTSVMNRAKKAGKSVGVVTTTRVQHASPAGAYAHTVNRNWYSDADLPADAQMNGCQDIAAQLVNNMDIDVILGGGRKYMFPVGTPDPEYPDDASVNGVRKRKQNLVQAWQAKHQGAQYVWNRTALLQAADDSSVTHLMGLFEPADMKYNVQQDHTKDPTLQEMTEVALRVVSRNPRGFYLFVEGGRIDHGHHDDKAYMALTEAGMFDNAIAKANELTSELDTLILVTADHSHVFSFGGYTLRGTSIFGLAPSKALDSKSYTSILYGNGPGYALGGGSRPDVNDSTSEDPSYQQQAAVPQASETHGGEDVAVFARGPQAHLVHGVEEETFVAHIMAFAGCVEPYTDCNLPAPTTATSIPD
Procedure: Alkaline Phosphatase (400 units) was added to 10 mL of Alkaline Phosphatase Stabilizing Buffer (APSB; Sigma-Aldrich Catalog #A4955) maintained at 37° C. Solution pH was verified by dropping 25 μL of solution onto calibrated Color-pHast Indicator Strips (pH 2-9, Darmstadt, Germany) and checking the color against the calibration scale. […] At each sampling time point, a 200-μL aliquot was drawn into labeled micro centrifuge tubes, each containing 50 μL of Alkaline Phosphatase Stop Solution (APSS; Sigma-Aldrich Catalog #A5852). Acetonitrile (400 μL) was added to each micro centrifuge tube, vortexed briefly, and centrifuged at 12,000 rpm for 5 min. An aliquot (200 μL) of resulting supernatant was removed from each tube, being careful not to disturb the enzyme pellet at the bottom and transferred to HPLC vials containing low volume inserts.

Sequence of human mu receptor (P35372 whole entry): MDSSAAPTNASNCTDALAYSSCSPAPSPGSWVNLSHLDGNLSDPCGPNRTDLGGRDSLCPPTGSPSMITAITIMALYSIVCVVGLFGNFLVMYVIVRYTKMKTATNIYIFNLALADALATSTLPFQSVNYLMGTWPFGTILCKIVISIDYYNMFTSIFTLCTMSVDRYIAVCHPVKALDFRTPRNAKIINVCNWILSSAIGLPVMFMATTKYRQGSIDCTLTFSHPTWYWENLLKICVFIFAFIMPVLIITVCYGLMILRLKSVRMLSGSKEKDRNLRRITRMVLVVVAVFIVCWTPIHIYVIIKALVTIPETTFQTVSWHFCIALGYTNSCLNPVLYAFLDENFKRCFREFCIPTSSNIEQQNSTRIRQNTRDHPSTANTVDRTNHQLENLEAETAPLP

With `C[N+]1(COP(=O)(O)O)CCC23CCCCC2C1Cc1ccc(O)cc13` (stereo not drawn) [N-phosphonooxymethyl levorphanol, N-Phosphonooxymethyl Levorphanol] the IC50 (human mu receptor) was 14 nM, the Ki (human mu receptor; human mu receptor, same assay as IC50, read-out: inhibition constant, Ki) was 5.7 nM and the “Solubility in PBS at pH 8” value [1] was “approximately 137 mg/mL”. For the same compound, the solubility [1] was about 137 mg/mL, the “Percentage of N-phosphonooxymethyl levorphanol remaining” value ([2]; pH 1.2 PBS, 0 hours) was 100.0 and the “Percentage of N-phosphonooxymethyl levorphanol remaining” value ([2]; pH 1.2 PBS, 0.5 hours) was 111.5. The “Percentage of N-phosphonooxymethyl levorphanol remaining” value ([2]; pH 1.2 PBS, 1 hour) was 104.4, the “Percentage of N-phosphonooxymethyl levorphanol remaining” value ([2]; pH 1.2 PBS, 3 hours) was 110.9 and the “Percentage of N-phosphonooxymethyl levorphanol remaining” value ([2]; pH 1.2 PBS, 5 hours) was 111.1. For the same compound, the “Percentage of N-phosphonooxymethyl levorphanol remaining” value ([2]; pH 1.2 PBS, 23 hours) was 110.9, the “Percentage of N-phosphonooxymethyl levorphanol remaining” value ([2]; pH 6 PBS, 0 hours) was 100.0 and the “Percentage of N-phosphonooxymethyl levorphanol remaining” value ([2]; pH 6 PBS, 0.5 hours) was 101.4. For the same compound, the “Percentage of N-phosphonooxymethyl levorphanol remaining” value ([2]; pH 6 PBS, 1 hour) was 102.3, the “Percentage of N-phosphonooxymethyl levorphanol remaining” value ([2]; pH 6 PBS, 3 hours) was 104.3 and the “Percentage of N-phosphonooxymethyl levorphanol remaining” value ([2]; pH 6 PBS, 5 hours) was 104.3. For the same compound, the “Percentage of N-phosphonooxymethyl levorphanol remaining” value ([2]; pH 6 PBS, 22 hours) was 108.0, the “Percentage of N-phosphonooxymethyl levorphanol remaining” value ([2]; pH 8 PBS, 0 hours) was 100.0 and the “Percentage of N-phosphonooxymethyl levorphanol remaining” value ([2]; pH 8 PBS, 0.5 hours) was 100.6. For the same compound, the “Percentage of N-phosphonooxymethyl levorphanol remaining” value ([2]; pH 8 PBS, 1 hour) was 100.3, the “Percentage of N-phosphonooxymethyl levorphanol remaining” value ([2]; pH 8 PBS, 3.5 hours) was 99.8 and the “Percentage of N-phosphonooxymethyl levorphanol remaining” value ([2]; pH 8 PBS, 6 hours) was 100.5. The “Percentage of N-phosphonooxymethyl levorphanol remaining” value ([2]; pH 8 PBS, 24 hours) was 103.7, the N-phosphonooxymethyl levorphanol remaining ([3]; alkaline phosphatase, after 30 minutes) was “no measurable amounts” and the “share of total peak area that is N-phosphonooxymethyl levorphanol” value ([3]; alkaline phosphatase, time zero) was 1.4%. For the same compound, the “time to hydrolyze to levorphanol in the presence of alkaline phosphatase” value ([3]; pH 8, 40 units AP per mg) was at most 30 min.
For `CN1CC[C@]23CCCC[C@H]2[C@H]1Cc1ccc(O)cc13` [levorphanol, Levorphanol, reference compound], the “Solubility in PBS at pH 8” value [1] was “less than 1 mg/mL” and the solubility [1] was under 1 mg/mL.
